According to US7135305B2, “Methods for controlling the lysis of coagulated blood with apolipoprotein e4 phenotype” (priority 2000, dated 2006):

How the values were obtained:
[1] = system: t-PA stimulated clot lysis in fresh human blood; experiment: in vitro clot lysis measured by the amount of liquid liberated from the blood sample (Example 1); settings: FIG. 2; individual B's blood; t-PA alone 0.5 mg/l blood; N=3
Source text: There are various methods for determining the function, action and or kinetics of t-PA. These include but are not limited to: measuring fibrin degradation fragments, clot lysis, clot weight, fluid evolution weight, clot times and others. Those experienced in the art will be familiar with these and other methods for assaying t-PA activity or clot degradation/formation etc. The data from this study consists of a measurement of clot dissolution or lysis by measuring the amount of liquid liberated from the blood sample. This is an index of clot lysis and the clot lysis is stimulated by t-PA.
Typically, two mls of fresh human blood are drawn and added to pre-weighed vials containing known amounts of t-PA with or without Apo E4. The blood is mixed and allowed to equilibrate for 40 minutes. The vials are centrifuged at 1 g for 15 minutes and the supernatant decanted. Clot weight and solution weight is determined and used to measure clot degradation or dissolution. Increasing supernatant volumes indicate increased clot degradation or increasing clot dissolution.

[2] = system: t-PA induced clot lysis; experiment: in vitro clot assay system, t-PA induced clot lysis with supplemental Apo E isoproteins (Example 3); parameters: species or system human; settings: FIG. 4; t-PA 0 to 4 μg/ml, alone or with supplemental Apo E 9.8 μg/ml; blood of 18 volunteers
Procedure: The ability of Apo E isoproteins to modulate t-PA induced clot lysis is assessed using an in vitro clot assay system. This system uses the decrease in clot formation in the presence of t-PA to approximate the amount of clot lysis. Blood samples are obtained from 18 volunteers and divided into three Apo E genotypes (6 patients in each group): E2 (E2/E2, E2/E3, E2/E4), E3 (E3/E3) and E4 (E3/E4, E4/E4). Clot lysis in the presence of varying concentrations of t-PA (0 to 4 μg/ml), is assessed in the presence or absence of supplemental Apo E2, E3 or E4 (9.8 μg/ml) for each patient genotype. The results are expressed as EC50s, which are the effective concentrations of t-PA required to achieve 50% lysis of the clot.

EC50, effective concentration of t-PA required to achieve 50% lysis of the clot [2]: 0.72 ± 0.19 µg/mL
Substance: t-PA: tissue plasminogen activator, clot lysis agent
level of clot lysis [1]: 2.5 g
